Measurements as given in US20070092551A1, “Therapeutic agent” (TAKARA BIO INC., priority 2003, published 2007).

Experiments:
[1] = test system: insulin-resistant mature adipocytes; experiment: Enhancing action on glucose uptake into insulin-resistant (TNF-α treated) mature adipocytes; format: cell-based; details: 4-hydroxyderricin 30 μM; mature adipocytes treated with mouse-derived TNF-α 10 or 20 ng/mL
Method: It is said that tumor necrosis factor a (TNF-α) is deeply involved in insulin resistance, and it has been known that a signal from an insulin receptor is inhibited by treating mature adipocytes with TNF-α, so that a reaction of glucose uptake is inhibited by insulin stimulation (Proc. Natl. Acad. Sci. USA, vol. 91, p 4854-4858 (1994)). The enhancing action by 4-hydroxyderricin on glucose uptake into mature adipocytes in which insulin resistance was induced by TNF-α was evaluated.
The induction of differentiation into mature adipocytes was carried out in the same manner as in the method described in Example 83, except that after preparation of the mature adipocytes, in order to induce insulin resistance in these mature adipocytes, mouse-derived TNF-α (manufactured by Cosmobio, 3410) was added to the medium so as to have a final concentration of 10 ng/mL or 20 ng/mL, and the adipocytes were cultured for additional 2 days. […]
The enhancing action on glucose uptake was evaluated in the same manner as in the method described in Example 83. For each of the cells prepared in item (1) of Example 95 mentioned above, there were set a group containing 4-hydroxyderricin at a final concentration of 30 μM, a group without addition of the sample as a negative control, and a group with treatment with insulin, and the radioactivity of each group was determined. […]

[2] = test system: mature adipocytes (3T3-L1 cells); experiment: Synergistic action of 4-hydroxyderricin and insulin to enhance glucose uptake; format: cell-based
Method: As the evaluation of synergistic action of 4-hydroxyderricin prepared in Example 2 and a low-concentration insulin to enhance glucose uptake, the amount of 2-deoxyglucose uptake into mature adipocytes during the stimulation with the sample was determined partly in accordance with the method described in Example 83.
The mature adipocytes were prepared according to the method described in item (1) of Example 83.
After the termination of the culture, the medium was removed, and the cells were washed twice with a 0.1% (w/v) bovine serum albumin (manufactured by Sigma, A8022)-containing Dulbecco's modified Eagle's medium. Thereafter, 1 mL of the same medium containing a solution of 4-hydroxyderricin in dimethyl sulfoxide having a final concentration of 5 μM was added thereto. The cells were cultured overnight at 37° C. in the presence of 5% carbon dioxide gas. Here, a group without addition of 4-hydroxyderricin was set as a negative control. After the overnight culture, the cells were washed twice with a HEPES buffered saline (140 mM NaCl, 5 mM KCl, 2.5 mM MgSO4, 1 mM CaCl2, 20 mM HEPES-Na (pH 7.4)). The amount 0.9 mL of the same buffer containing 4-hydroxyderricin having a final concentration of 5 μM was added thereto. […] Thereafter, 2-deoxy-[1,2-^3H(N)]-glucose subjected to uptake into the adipocytes was determined in the same manner as the method described in item (2) of Example 83.

[3] = test system: type II diabetes model mice; experiment: Amelioration effects on diabetes of 4-hydroxyderricin (blood glucose level); format: in vivo; details: male KK-Ay mice
Method: Pathological amelioration effects of 4-hydroxyderricin were examined using type II diabetes model mice. Experiments were carried out with five male 12-week old KK-Ay mice (CLEA Japan, Inc.) per group. 4-Hydroxyderricin was suspended or dissolved in a 0.5% (w/v) carboxymethyl cellulose solution (CMC) so as to have a concentration of 4% (w/v), and the suspension or solution was forcibly orally administered to the mice once a day at 200 mg/kg for consecutive days. CMC was administered to each mice in the control group at 5 mL/kg in the same manner. On the day before the beginning of administration, on the fourth day and on the eighteenth day, blood was collected from the veins of mouse tails, and the blood glucose level was determined with a simple blood glucose meter, ACCU-CHEK Compact (Roche Diagnostics K.K.). […] Here, during the experimental period, no changes were found in body weight and general symptoms.

KK-Ay mice = experiment: Glucose tolerance test, xanthoangelol; format: in vivo; details: female KK-Ay mice, 200 mg/kg oral once a day
Method: Amelioration effects for glucose tolerance of xanthoangelol were examined using female 12-week old KK-Ay mice. Xanthoangelol which was previously suspended or dissolved in an olive oil in a concentration of 4% (w/v) was forcibly orally administered to a group to be administered with xanthoangelol at 200 mg/kg once a day for consecutive days. An olive oil was administered to the mice in the control group at 5 mL/kg in the same manner. The mice were fasted over one night spanning the sixteenth day to the seventeenth day from administration, and the glucose tolerance test was carried out in the same manner as in Example 91.

[4] = 200 mg/kg oral once a day in CMC, mean ± standard error

| SMILES | enhancing action on glucose uptake, increase without TNF-α defined as 100% [1] | 2-deoxy-[1,2-3H(N)]-glucose uptake on addition simultaneously with insulin ([2]; 4-hydroxyderricin 5 μM + insulin 0.01 μg/mL, versus each alone) | 2-deoxy-[1,2-3H(N)]-glucose uptake ([2]; 4-hydroxyderricin 5 μM alone, compared to the negative control) | blood glucose level (in words) ([3]; 200 mg/kg oral once a day) | Blood Glucose Level, Eighteenth Day [3, 4] [mg/dL] | Blood Glucose Level, Fourth Day [3, 4] [mg/dL] | changes in body weight and general symptoms ([3]; 200 mg/kg oral once a day, experimental period) | Blood Glucose Level, Previous Day ([3]; day before beginning of administration, 200 mg/kg oral once a day in CMC, mean ± standard error) [mg/dL] | action on the elevation in the blood glucose level after the glucose tolerance (in words) (KK-Ay mice) | Blood Glucose Level, Before Glucose Tolerance (KK-Ay mice; seventeenth day, fasted) [mg/dL] | Blood Glucose Level, 30 Minutes After Tolerance (KK-Ay mice; seventeenth day, fasted, glucose 1 g/kg i.p.) [mg/dL] |
| --- | --- | --- | --- | --- | --- | --- | --- | --- | --- | --- | --- |
| COc1ccc(C(=O)/C=C/c2ccc(O)cc2)c(O)c1CC=C(C)C [4-Hydroxyderricin, 4,2′-Dihydroxy-3′-prenyl-4′-methoxychalcone] | around 80% | synergistically increasing the enhancing activity on glucose uptake | enhancement of 2-deoxy-[1,2-^3H(N)]-glucose uptake | lowered | 191 ± 10 | 187 ± 9 | no changes | 262 ± 14 |  |  |  |
| CC(C)=CCC/C(C)=C/Cc1c(O)ccc(C(=O)/C=C/c2ccc(O)cc2)c1O [Xanthoangelol, 4,2′,4′-Trihydroxy-3′-geranylchalcone] |  |  |  |  |  |  |  |  | suppressive action | 106 ± 7 | 234 ± 15 |
